{
  "source": "patent US8101768B2",
  "about": "“Cyclic amine compound and pest control agent” (Nippon Soda Co., Ltd., priority 2004, dated 2012)",
  "data": [
    {"test_system": "organophosphorous agent resistant two-spotted spider mites", "assay": "Effect on Two-spotted Spider Mite (spray on kidney bean leaves)", "format": "in vivo", "settings": "125 ppm, water dispersible powder of Formulation Example 1 sprayed, 17 female adults, 25° C., 65% humidity, 3 days", "from_the_text": "Effect on Two-spotted Spider Mite\n17 female adults of organophosphorous agent resistant two-spotted spider mites were inoculated onto the first leaves of kidney beans seeded onto 3.5 inch pots and germinated 7 to 10 days before, onto which each of liquid agents, diluted with water so as to adjust the respective concentration of the chemical compounds to 125 ppm according to the formulation of the water dispersible powder shown in the aforementioned Formulation Example 1, was sprayed. After they were left in a thermostatic chamber at 25° C. in 65% humidity for 3 days, the rate of killed adults was investigated. The examination was repeated twice. As the results, the following chemical compounds killed 100% of the adults.", "units": {"rate of killed adults": "%"}, "values": [
      {"smiles": "CCS(=O)(=O)Oc1cc(C(F)(F)F)ccc1OC1CC2CCC(C1)N2c1ccc(C(F)(F)F)cn1", "note": "(stereo not shown) [2-152]", "rate of killed adults": 100},
      {"smiles": "Cc1cnc(-c2cc(C(F)(F)F)ccc2OC2CC3CCC(C2)N3c2ccc(C(F)(F)F)cn2)o1", "note": "(stereo not shown) [2-205]", "rate of killed adults": 100},
      {"smiles": "FC(F)(F)c1ccc(N2C[C@H]3CC[C@@H](C2)[C@@H]3Oc2ccc(C(F)(F)F)cc2OC2CC2(Cl)Cl)nc1", "note": "(stereo partly shown) [5-104]", "rate of killed adults": 100},
      {"smiles": "O=C(OC1CCCC1)c1cc(C(F)(F)F)ccc1OC1CC2CCC(C1)N2c1ccc(C(F)(F)F)cn1", "note": "(stereo not shown) [2-223]", "rate of killed adults": 100},
      {"smiles": "CCC(C)=NOc1cc(C(F)(F)F)ccc1OC1CC2CCC(C1)N2c1ccc(C(F)(F)F)cn1", "note": "(mixture of isomers) [2-226]", "rate of killed adults": 100},
      {"smiles": "CC=Cc1cc(C(F)(F)F)ccc1OC1CCN(c2ccc(C(F)(F)F)cn2)CC1", "note": "[1-73]", "rate of killed adults": 100},
      {"smiles": "CCC(C)OC(=O)c1cc(C(F)(F)F)ccc1OC1CC2CCC(C1)N2c1ccc(C(F)(F)F)cn1", "note": "(stereo not shown) [2-208]", "rate of killed adults": 100},
      {"smiles": "CS(=O)(=O)Oc1cc(C(F)(F)F)ccc1OC1CC2CCC(C1)N2c1ccc(C(F)(F)F)cn1", "note": "(stereo not shown) [2-151]", "rate of killed adults": 100},
      {"smiles": "CN(C)S(=O)(=O)Oc1cc(C(F)(F)F)ccc1OC1CC2CCC(C1)N2c1ccc(C(F)(F)F)cn1", "note": "(stereo not shown) [2-155]", "rate of killed adults": 100},
      {"smiles": "CCCC(=O)Oc1cc(C(F)(F)F)ccc1OC1C2CCC1CN(c1ccc(C(F)(F)F)cn1)C2", "note": "(stereo not shown) [5-199]", "rate of killed adults": 100},
      {"smiles": "CCC(=O)c1cc(C(F)(F)F)ccc1OC1CCN(c2ccc(C(F)(F)F)cn2)CC1", "note": "[1-179]", "rate of killed adults": 100},
      {"smiles": "COc1cc(C(F)(F)F)ccc1O[C@@H]1[C@@H]2CC[C@H]1CN(c1ccc(C(F)(F)F)cn1)C2", "note": "[5-89]", "rate of killed adults": 100},
      {"smiles": "FC(F)(F)c1ccc(N2CCC(Oc3ccc(C(F)(F)F)cc3COC3CCCO3)CC2)nc1", "note": "(stereo not shown) [1-180]", "rate of killed adults": 100},
      {"smiles": "O=[N+]([O-])c1cc(C(F)(F)F)ccc1O[C@@H]1[C@@H]2CC[C@H]1CN(c1ccc(C(F)(F)F)cn1)C2", "note": "[5-38]", "rate of killed adults": 100},
      {"smiles": "CC(C)(C)C(=O)Oc1cc(C(F)(F)F)ccc1OC1C2CCC1CN(c1ccc(C(F)(F)F)cn1)C2", "note": "(stereo not shown) [5-200]", "rate of killed adults": 100},
      {"smiles": "CC#CCOc1cc(C(F)(F)F)ccc1OC1C2CCC1CN(c1ccc(C(F)(F)F)cn1)C2", "note": "(stereo not shown) [5-232]", "rate of killed adults": 100},
      {"smiles": "CCCOc1cc(C(F)(F)F)ccc1OC1CC2CCC(C1)N2c1ccc(C#N)cn1", "note": "(stereo not shown) [2-93]", "rate of killed adults": 100},
      {"smiles": "FC(F)(F)c1ccc(N2CC3CCC(C2)C3Oc2ccc(C(F)(F)F)cc2COC2CCOC2)nc1", "note": "(stereo not shown) [5-231]", "rate of killed adults": 100},
      {"smiles": "CCOc1cc(C(F)(F)F)ccc1OC1CCN(c2ccc(Br)cn2)CC1", "note": "[1-91]", "rate of killed adults": 100},
      {"smiles": "C#CCON=Cc1cc(C(F)(F)F)ccc1OC1CC2CCC(C1)N2c1ccc(C(F)(F)F)cn1", "note": "(stereo not shown) [2-221]", "rate of killed adults": 100},
      {"smiles": "CC(C)(C)COc1cc(C(F)(F)F)ccc1OC1CC2CCC(C1)N2c1ccc(C(F)(F)F)cn1", "note": "(stereo not shown) [2-111]", "rate of killed adults": 100},
      {"smiles": "CCCOc1cc(C(F)(F)F)ccc1O[C@H]1C[C@H]2CC[C@@H](C1)N2c1ccc(C(F)(F)F)cn1", "note": "[2-82, 3α-[2-propoxy-4-(trifluoromethyl)phenoxy]-8-[5-(trifluoromethyl)-2-pyridyl]-8-azabicyclo[3.2.1]octane]", "rate of killed adults": 100},
      {"smiles": "OCCOc1cc(C(F)(F)F)ccc1OC1CC2CCC(C1)N2c1ccc(C(F)(F)F)cn1", "note": "(stereo not shown) [2-115]", "rate of killed adults": 100},
      {"smiles": "CON=Cc1cc(C(F)(F)F)ccc1OC1CC2CCC(C1)N2c1ccc(C(F)(F)F)cn1", "note": "(stereo not shown) [2-211]", "rate of killed adults": 100},
      {"smiles": "CC(C)(C)C(=O)Oc1cc(C(F)(F)F)ccc1OC1CC2CCC(C1)N2c1ccc(C(F)(F)F)cn1", "note": "(stereo not shown) [2-150]", "rate of killed adults": 100},
      {"smiles": "FC(F)(F)c1ccc(N2CC3CCC(C2)C3Oc2ccc(C(F)(F)F)cc2OCc2ccco2)nc1", "note": "(stereo not shown) [5-206]", "rate of killed adults": 100},
      {"smiles": "CCC=Cc1cc(C(F)(F)F)ccc1OC1CC2CCC(C1)N2c1ccc(C(F)(F)F)cn1", "note": "(stereo not drawn) [2-186, 3α-[2-(buten-1-yl)-4-(trifluoromethyl)phenoxy]-8-[5-(trifluoromethyl)-2-pyridyl]-8-azabicyclo[3.2.1]octane]", "rate of killed adults": 100},
      {"smiles": "CCC(=O)Oc1cc(C(F)(F)F)ccc1OC1C2CCC1CN(c1ccc(C(F)(F)F)cn1)C2", "note": "(stereo not shown) [5-198]", "rate of killed adults": 100},
      {"smiles": "CC(O)COc1cc(C(F)(F)F)ccc1OC1C2CCC1CN(c1ccc(C(F)(F)F)cn1)C2", "note": "(stereo not shown) [5-127]", "rate of killed adults": 100},
      {"smiles": "Cc1noc(-c2cc(C(F)(F)F)ccc2OC2CC3CCC(C2)N3c2ccc(C(F)(F)F)cn2)n1", "note": "(stereo not shown) [2-200]", "rate of killed adults": 100},
      {"smiles": "C=C=COc1cc(C(F)(F)F)ccc1OC1CCN(c2ccc(C(F)(F)F)cn2)CC1", "note": "[1-143]", "rate of killed adults": 100},
      {"smiles": "COCCOc1cc(C(F)(F)F)ccc1O[C@@H]1[C@@H]2CC[C@H]1CN(c1ccc(C#N)cn1)C2", "note": "[5-125]", "rate of killed adults": 100},
      {"smiles": "CCCCOc1cc(C(F)(F)F)ccc1OC1CCN(c2ccc(C(F)(F)F)cn2)CC1", "note": "[1-101]", "rate of killed adults": 100},
      {"smiles": "CCC1COC(c2cc(C(F)(F)F)ccc2O[C@@H]2[C@@H]3CC[C@H]2CN(c2ccc(C(F)(F)F)cn2)C3)N1", "note": "(stereo partly shown) [5-263]", "rate of killed adults": 100},
      {"smiles": "FC(F)(F)c1ccc(N2CCC(Oc3ccc(C(F)(F)F)cc3CCl)CC2)nc1", "note": "[1-81]", "rate of killed adults": 100},
      {"smiles": "COC(C)COc1cc(C(F)(F)F)ccc1OC1C2CCC1CN(c1ccc(C(F)(F)F)cn1)C2", "note": "(stereo not shown) [5-128]", "rate of killed adults": 100},
      {"smiles": "FC(F)(F)c1ccc(N2CC3CCC(C2)C3Oc2ccc(C(F)(F)F)cc2C2CC=CO2)nc1", "note": "(stereo not shown) [5-235]", "rate of killed adults": 100},
      {"smiles": "CC(Br)COc1cc(C(F)(F)F)ccc1OC1CC2CCC(C1)N2c1ccc(C(F)(F)F)cn1", "note": "(stereo not shown) [2-195]", "rate of killed adults": 100},
      {"smiles": "CC(C)=CCOc1cc(C(F)(F)F)ccc1OC1C2CCC1CN(c1ccc(C(F)(F)F)cn1)C2", "note": "(stereo not shown) [5-139]", "rate of killed adults": 100},
      {"smiles": "CC(OC(=O)c1cc(C(F)(F)F)ccc1OC1CC2CCC(C1)N2c1ccc(C(F)(F)F)cn1)C1CC1", "note": "(stereo not shown) [2-239]", "rate of killed adults": 100},
      {"smiles": "CC(=O)OC(CC(C)C)c1cc(C(F)(F)F)ccc1O[C@@H]1[C@@H]2CC[C@H]1CN(c1ccc(C(F)(F)F)cn1)C2", "note": "(stereo partly shown) [5-258]", "rate of killed adults": 100},
      {"smiles": "N#Cc1cc(C(F)(F)F)ccc1O[C@@H]1[C@@H]2CC[C@H]1CN(c1ccc(C(F)(F)F)cn1)C2", "note": "[5-32]", "rate of killed adults": 100},
      {"smiles": "CC=NOc1cc(C(F)(F)F)ccc1OC1CC2CCC(C1)N2c1ccc(C(F)(F)F)cn1", "note": "(mixture of isomers) [2-213]", "rate of killed adults": 100},
      {"smiles": "C=CCCOc1cc(C(F)(F)F)ccc1OC1CC2CCC(C1)N2c1ccc(C(F)(F)F)cn1", "note": "(stereo not shown) [2-144]", "rate of killed adults": 100},
      {"smiles": "CCON=Cc1cc(C(F)(F)F)ccc1OC1CC2CCC(C1)N2c1ccc(C(F)(F)F)cn1", "note": "(stereo not shown) [2-203]", "rate of killed adults": 100},
      {"smiles": "FC(F)(F)c1ccc(N2CC3CCC(C2)C3Oc2ccc(C(F)(F)F)cc2OCC2CCCO2)nc1", "note": "(stereo not shown) [5-204]", "rate of killed adults": 100}
    ]}
  ]
}
